In ChEMBL document CHEMBL4368855, “Novel tricyclic glycal-based TRIB1 inducers that reprogram LDL metabolism in hepatic cells” (Medchemcomm, 2018):
≈ marks a conversion by molar mass, not a printed value. Blank lines part the entries; values can stand above or below the molecule they belong to. Calls of active or inactive are those of the source. The calls are words filed in the database; no cut-off is given here.

Columns and labels:
HepG2 [1] = test: Induction of TRIB1 expression in human HepG2 cells measured after overnight incubation by qRT-PCR analysis; type: functional, cell-based
[2] = Solubility of the compound in 1% DMSO/phosphate buffered saline at pH 7.4 incubated for 18 hrs under shaking condition by UPLC/MS analysis; type: physicochemical
HepG2 [3] = test: Up regulation of LDLR gene expression in human HepG2 cells measured after 6 hrs by qRT-PCR analysis; type: functional, cell-based; conditions: HepG2, 6 h
[4] = Stability in mouse liver microsomes assessed as parent compound remaining at 1 uM incubated for 60 mins under shaking condition by UPLC/MS analysis; type: ADME, Microsome; conditions: read-out: Stability
HepG2 [5] = test: Up regulation of LDLR gene expression in human HepG2 cells measured after 6 hrs by qRT-PCR analysis relative to control; type: functional
HepG2 [6] = test: Up regulation of TRIB1 gene expression in human HepG2 cells measured after 6 hrs by qRT-PCR analysis relative to control; type: functional
HepG2 [7] = test: Up regulation of TRIB1 gene expression in human HepG2 cells measured after 6 hrs by qRT-PCR analysis; type: functional, cell-based; conditions: HepG2, 6 h
HepG2 [8] = test: Down regulation of PCSK9 gene expression in human HepG2 cells measured after 24 hrs by qRT-PCR analysis; type: functional, cell-based; conditions: HepG2, 24 h
HepG2 [9] = test: Up regulation of LDLR expression in human HepG2 cells at 10 uM measured after 6 hrs in presence of JAK inhibitor CP-690550 by qRT-PCR analysis; type: functional, cell-based
HepG2 [10] = test: Up regulation of DUSP1 expression in human HepG2 cells at 1 uM measured after 6 hrs by transcriptional profiling analysis; type: functional, cell-based
HepG2 [11] = test: Down regulation of APOC3 gene expression in human HepG2 cells at 1 uM measured after 24 hrs by transcriptional profiling analysis; type: functional, cell-based
HepG2 [12] = test: Down regulation of HMGCR gene expression in human HepG2 cells at 1 uM measured after 24 hrs by transcriptional profiling analysis; type: functional, cell-based
HepG2 [13] = test: Down regulation of LSS gene expression in human HepG2 cells at 1 uM measured after 24 hrs by transcriptional profiling analysis; type: functional, cell-based
HepG2 [14] = test: Down regulation of DGAT1 gene expression in human HepG2 cells at 1 uM measured after 24 hrs by transcriptional profiling analysis; type: functional, cell-based
HepG2 [15] = test: Effect on SREBF1 expression in human HepG2 cells at 1 uM measured after 6 to 24 hrs by transcriptional profiling analysis; type: functional, cell-based
[16] = AUC (infinity) in C57BL/6 mouse liver at 10 mg/kg, ip administered as single dose by mass spectrometry; type: ADME, organism-based; design: dose 10 mg/kg, route intraperitoneal, time infinity; conditions: in vivo
[17] = Tmax in C57BL/6 mouse liver at 10 mg/kg, ip administered as single dose by mass spectrometry; type: ADME, organism-based
[18] = Half life in C57BL/6 mouse liver at 10 mg/kg, ip administered as single dose by mass spectrometry; type: ADME, organism-based
[19] = Unbound fraction in C57BL/6 mouse liver at 10 mg/kg, ip administered as single dose by mass spectrometry; type: ADME, organism-based
HepG2 [20] = test: Up regulation of JUN expression in human HepG2 cells at 1 uM measured after 6 hrs by transcriptional profiling analysis; type: functional, cell-based
HepG2 [21] = test: Down regulation of MTTP gene expression in human HepG2 cells at 1 uM measured after 24 hrs by transcriptional profiling analysis; type: functional, cell-based
HepG2 [22] = test: Up regulation of LDLR expression in human HepG2 cells at 10 uM measured after 6 hrs in presence of MEK inhibitor U0126 by qRT-PCR analysis; type: functional, cell-based
HepG2 [23] = test: Up regulation of TRIB1 expression in human HepG2 cells at 1 uM measured after 6 to 24 hrs by transcriptional profiling analysis; type: functional, cell-based
HepG2 [24] = test: Down regulation of ACAT2 gene expression in human HepG2 cells at 1 uM measured after 24 hrs by transcriptional profiling analysis; type: functional, cell-based
[25] = molecular target: T1, Mitogen-activated protein kinase; ERK1/ERK2 (Homo sapiens) (UniProt P27361+P28482); test: Activation of ERK1/2 phosphorylation in human HepG2 cells assessed as ratio of phosphorylated ERK1/2 to total ERK1/2 at 2 uM after 6 hrs by Western blot analysis relative to control; type: cell-based
T1 sequence (P27361 whole entry, looked up): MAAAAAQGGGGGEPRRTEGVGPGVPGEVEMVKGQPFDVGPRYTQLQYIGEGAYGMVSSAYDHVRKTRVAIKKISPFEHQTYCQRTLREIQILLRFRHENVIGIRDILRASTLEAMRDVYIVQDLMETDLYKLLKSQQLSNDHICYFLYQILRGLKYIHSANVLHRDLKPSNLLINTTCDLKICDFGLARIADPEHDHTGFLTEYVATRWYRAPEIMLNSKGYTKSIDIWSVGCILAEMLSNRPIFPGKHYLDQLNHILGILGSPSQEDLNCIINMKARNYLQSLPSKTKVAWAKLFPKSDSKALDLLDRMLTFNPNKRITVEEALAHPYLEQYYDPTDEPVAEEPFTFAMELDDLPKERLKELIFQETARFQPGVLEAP
T1 sequence (P28482 whole entry, looked up): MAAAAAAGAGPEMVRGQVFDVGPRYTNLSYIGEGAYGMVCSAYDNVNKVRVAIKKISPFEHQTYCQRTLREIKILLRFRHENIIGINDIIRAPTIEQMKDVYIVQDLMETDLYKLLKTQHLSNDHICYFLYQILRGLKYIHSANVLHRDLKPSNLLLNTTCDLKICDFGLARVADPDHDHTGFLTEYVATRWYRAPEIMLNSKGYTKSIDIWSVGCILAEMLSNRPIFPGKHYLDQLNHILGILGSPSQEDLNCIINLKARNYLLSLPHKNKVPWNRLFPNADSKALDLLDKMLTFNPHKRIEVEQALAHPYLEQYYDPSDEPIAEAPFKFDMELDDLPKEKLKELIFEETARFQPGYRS

HepG2 [26] = test: Down regulation of PCSK9 expression in human HepG2 cells after 24 hrs by ELISA; type: functional, cell-based
HepG2 [27] = test: Down regulation of MVK gene expression in human HepG2 cells at 1 uM measured after 24 hrs by transcriptional profiling analysis; type: functional, cell-based
[28] = Half life in C57BL/6 mouse plasma at 10 mg/kg, ip administered as single dose by mass spectrometry; type: ADME, organism-based
HepG2 [29] = test: Up regulation of LDLR expression in human HepG2 cells after 24 hrs by ELISA; type: functional, cell-based
[30] = Cmax in C57BL/6 mouse plasma at 10 mg/kg, ip administered as single dose by mass spectrometry; type: ADME, organism-based; design: dose 10 mg/kg, route intraperitoneal
HepG2 [31] = test: Down regulation of PCSK9 gene expression in human HepG2 cells cultured in cholesterol depleted media at 2.5 uM after 24 hrs by qRT-PCR analysis; type: functional, cell-based
[32] = Clearance in C57BL/6 mouse plasma at 10 mg/kg, ip administered as single dose by mass spectrometry; type: ADME, organism-based
HepG2 [33] = test: Up regulation of EGR1 expression in human HepG2 cells at 1 uM measured after 6 hrs by transcriptional profiling analysis; type: functional, cell-based
HepG2 [34] = test: Up regulation of ZFP36 expression in human HepG2 cells at 1 uM measured after 6 hrs by transcriptional profiling analysis; type: functional, cell-based
HepG2 [35] = test: Down regulation of HMGCS1 gene expression in human HepG2 cells at 1 uM measured after 24 hrs by transcriptional profiling analysis; type: functional, cell-based
[36] = AUC (infinity) in C57BL/6 mouse plasma at 10 mg/kg, ip administered as single dose by mass spectrometry; type: ADME, organism-based; design: dose 10 mg/kg, route intraperitoneal, time infinity; conditions: in vivo
HepG2 [37] = test: Up regulation of PCSK9 gene expression in human HepG2 cells at 2 uM after 24 hrs in presence of atorvastatin by qRT-PCR analysis; type: functional, cell-based
HepG2 [38] = test: Induction of TRIB1 expression in human HepG2 cells assessed as reduction in 13[C3]-D5-glycerol incorporation into C50:2 triglyceride at 2 uM preincubated for 24 hrs followed by 13[C3]-D5-glycerol addition and measured by LC/MS analysis; type: functional, cell-based
HepG2 [39] = test: Up regulation of FOS expression in human HepG2 cells at 1 uM measured after 6 hrs by transcriptional profiling analysis; type: functional, cell-based
HepG2 [40] = test: Up regulation of LDLR expression in human HepG2 cells at 1 uM measured after 6 to 24 hrs by transcriptional profiling analysis; type: functional, cell-based
HepG2 [41] = test: Induction of LDL uptake in human HepG2 cells preincubated for 20 hrs followed by BODIPY-FL-LDL addition and measured after 5 hrs by Hoechst 33342 staining based microscopic analysis; type: functional, cell-based
HepG2 [42] = test: Induction of TRIB1 expression in human HepG2 cells assessed as reduction in 13[C3]-D5-glycerol incorporation into C48:2 triglyceride at 2 uM preincubated for 24 hrs followed by 13[C3]-D5-glycerol addition and measured by LC/MS analysis; type: functional, cell-based
HepG2 [43] = test: Effect on SREBF2 expression in human HepG2 cells at 1 uM measured after 6 to 24 hrs by transcriptional profiling analysis; type: functional, cell-based
HepG2 [44] = test: Up regulation of ATF3 expression in human HepG2 cells at 1 uM measured after 6 hrs by transcriptional profiling analysis; type: functional, cell-based
[45] = molecular target: T1, Mitogen-activated protein kinase; ERK1/ERK2 (Homo sapiens); test: Activation of ERK1/2 phosphorylation in human HepG2 cells assessed as ratio of phosphorylated ERK1/2 to total ERK1/2 at 2 uM after 30 mins by Western blot analysis relative to control; type: cell-based
HepG2 [46] = test: Induction of TRIB1 expression in human HepG2 cells assessed as increase in ApoB secretion measured after 24 hrs by ELISA; type: functional, cell-based
HepG2 [47] = test: Up regulation of LDLR gene expression in human HepG2 cells at 2 uM after 6 hrs in presence of simvastatin by qRT-PCR analysis; type: functional, cell-based
HepG2 [48] = test: Down regulation of MOGAT2 gene expression in human HepG2 cells at 1 uM measured after 24 hrs by transcriptional profiling analysis; type: functional, cell-based
[49] = Tmax in C57BL/6 mouse plasma at 10 mg/kg, ip administered as single dose by mass spectrometry; type: ADME, organism-based
[50] = Apparent volume of distribution in C57BL/6 mouse plasma at 10 mg/kg, ip administered as single dose by mass spectrometry; type: ADME, organism-based; conditions: in vivo
[51] = Cmax in C57BL/6 mouse liver at 10 mg/kg, ip administered as single dose by mass spectrometry; type: ADME, organism-based; design: dose 10 mg/kg, route intraperitoneal
[52] = Apparent volume of distribution in C57BL/6 mouse liver at 10 mg/kg, ip administered as single dose by mass spectrometry; type: ADME, organism-based; conditions: in vivo
HepG2 [53] = test: Up regulation of JUNB expression in human HepG2 cells at 1 uM measured after 6 hrs by transcriptional profiling analysis; type: functional, cell-based
HepG2 [54] = test: Up regulation of LDLR gene expression in human HepG2 cells cultured in cholesterol depleted media at 2.5 uM after 6 hrs by qRT-PCR analysis; type: functional, cell-based

- EC50 (HepG2 [1]): > 25000 nM
Structure (SMILES): CN1C(=O)c2cc(NC(=O)c3ccc(C(F)(F)F)cc3)ccc2OC[C@H]2O[C@@H](CC(=O)NC3Cc4ccccc4C3)CC[C@@H]21

- solubility kinetic at 18 h [2]: 6 µM (≈ 3.37 µg/mL)
- EC50 (HepG2 [3]): 500 nM
- remaining at 1 h, 1 µM [4]: 0%
- EC50 (HepG2 [7]): 720 nM
- EC50 (HepG2 [8]): 100 nM
Structure (SMILES): CN1C(=O)c2cc(NC(=O)c3ccc(C(F)(F)F)cc3)ccc2OC[C@@H]2O[C@H](CNC(=O)CC(C)(C)C)CC[C@@H]21
- max activation (HepG2 [5]): 1.9
- max activation (HepG2 [6]): 6.6

- solubility kinetic at 18 h [2]: 90 µM (≈ 50.5 µg/mL)
- EC50 (HepG2 [3]): 2450 nM
- remaining at 1 h, 1 µM [4]: 54%
- EC50 (HepG2 [7]): 1100 nM
- EC50 (HepG2 [8]): 25 nM
Structure (SMILES): CN1C(=O)c2cc(NC(=O)c3ccc(C(F)(F)F)cc3)ccc2OC[C@@H]2O[C@H](CNC(=O)[C@@H]3CCCO3)CC[C@@H]21
- max activation (HepG2 [5]): 4.3
- max activation (HepG2 [6]): 3.7

- AUC [16]: 11558 µg/L/h
- Tmax [17]: 4.8 min
- half-life [18]: 2.25 h
- fraction unbound [19]: 0.01
- fold change (FC) [25]: 2
- half-life [28]: 1.63 h
- Cmax [30]: 437 ng/mL
- CL/F [32]: 165 mL/min/kg
- EC50 (HepG2 [3]): 490 nM
- remaining at 1 h, 1 µM [4]: 0%
- AUC [36]: 1010 µg/L/h
- EC50 (HepG2 [7]): 430 nM
- fold change (FC) [45]: 2
- EC50 (HepG2 [8]): 240 nM
- Tmax [49]: 1 h
- Vz [50]: 23.3 L/kg
- Cmax [51]: 4660 ng/mL
- Vz [52]: 2.81 L/kg
- EC50 (HepG2 [1]): 230 nM
Structure (SMILES): CN1C(=O)c2cc(NC(=O)c3ccc(C(F)(F)F)cc3)ccc2OC[C@@H]2O[C@H](CC(=O)NC3Cc4ccccc4C3)CC[C@@H]21
- Activity (HepG2 [9]): Active
- Activity (HepG2 [10]): Active
- Activity (HepG2 [11]): Active
- Activity (HepG2 [12]): Active
- Activity (HepG2 [13]): Active
- Activity (HepG2 [14]): Active
- Activity (HepG2 [15]): inactive
- Activity (HepG2 [20]): Active
- Activity (HepG2 [21]): Active
- Activity (HepG2 [22]): inactive
- Activity (HepG2 [23]): Active
- Activity (HepG2 [24]): Active
- Activity (HepG2 [26]): Active
- Activity (HepG2 [27]): Active
- Activity (HepG2 [29]): Active
- Activity (HepG2 [31]): Active
- Activity (HepG2 [33]): Active
- Activity (HepG2 [34]): Active
- Activity (HepG2 [35]): Active
- Activity (HepG2 [37]): inactive
- max activation (HepG2 [5]): 4.8
- Activity (HepG2 [38]): Active
- max activation (HepG2 [6]): 4.7
- Activity (HepG2 [39]): Active
- Activity (HepG2 [40]): Active
- Activity (HepG2 [41]): Active
- Activity (HepG2 [42]): Active
- Activity (HepG2 [43]): inactive
- Activity (HepG2 [44]): Active
- Activity (HepG2 [46]): Active
- Activity (HepG2 [47]): Active
- Activity (HepG2 [48]): Active
- Activity (HepG2 [53]): Active
- Activity (HepG2 [54]): Active
